Assay results taken from PubChem BioAssay AID1259347.
Activity calls are given as the source filed them.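 Rule for the calls: active = compounds raising absorbance, a cell survival measure, over 1.5-fold at the top dose, rising with dose; inactive = the rest.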

Columns and labels:
[1] = survival after telomere uncapping, modulators, dose response, cell-based, HCT116, Ad-hTR-mut infection, MTT (AID 1259347); details: HCT116 Ad-hTR-mut infected, survival, MTT 4 d; measured here: second series; at 10 µM; stronger effect = higher value
[2] = tested on: HCT116 Ad-hTR-mut infected, survival, MTT 4 d; assay: as above

Row | SMILES | fold survival [1] | EC50 [2]
1 | Cc1ccc(C(=O)Nc2ccc(S(=O)(=O)O)c3cc(S(=O)(=O)O)cc(S(=O)(=O)O)c23)cc1NC(=O)c1cccc(NC(=O)Nc2cccc(C(=O)Nc3cc(C(=O)Nc4ccc(S(=O)(=O)O)c5cc(S(=O)(=O)O)cc(S(=O)(=O)O)c45)ccc3C)c2)c1 | 2.65 | < 10 µM
2 | C/C(=C\C(=O)Nc1ccccc1C(=O)O)c1ccc2ccccc2c1 |  | > 0.1 µM (inactive)
3 | Cc1nc2cc(-c3ccc(Br)cc3)nn2c(C)c1CCC(=O)O | 1.44 | < 10 µM
